Test results reported in ChEMBL document CHEMBL4613225, “Preparation and biological evaluation of BACE1 inhibitors: Leveraging trans-cyclopropyl moieties as ligand efficient conformational constraints” (Bioorg Med Chem, 2020).

How the values were obtained:
[1] = Ratio of unbound fraction in PDAPP V717F transgenic mouse brain to plasma at 100 mg/kg, sc; assay type: ADME, organism-based; conditions: read-out: K(p,uu,brain)
[2] = Permeability in MDCK-MDR1 cells at 5 uM after 1 hr by LC-MS/MS analysis; assay type: ADME, cell-based, Canis lupus familiaris; conditions: dog, read-out: permeability
[3] = Drug level in PDAPP V717F transgenic mouse brain at 30 mg/kg, sc; assay type: ADME, organism-based; conditions: in vivo, read-out: Ct
[4] = Drug level in PDAPP V717F transgenic mouse plasma at 10 mg/kg, sc; assay type: ADME, organism-based; conditions: in vivo
[5] = Drug level in PDAPP V717F transgenic mouse plasma assessed as unbound fraction at 30 mg/kg, sc; assay type: ADME, organism-based; conditions: in vivo
[6] = Drug level in PDAPP V717F transgenic mouse plasma at 100 mg/kg, sc; assay type: ADME, organism-based; conditions: in vivo
[7] = Drug level in PDAPP V717F transgenic mouse plasma at 30 mg/kg, sc; assay type: ADME, organism-based; conditions: in vivo
[8] = Drug level in PDAPP V717F transgenic mouse plasma assessed as unbound fraction at 100 mg/kg, sc; assay type: ADME, organism-based; conditions: in vivo
[9] = Metabolic stability in dog liver microsomes assessed as metabolized drug level after 30 mins in presence of NADPH by LC-MS/MS analysis; assay type: ADME, Canis lupus familiaris, Microsome; conditions: read-out: Drug metabolism
[10] = Ratio of unbound fraction in PDAPP V717F transgenic mouse brain to plasma at 30 mg/kg, sc; assay type: ADME, organism-based; conditions: read-out: K(p,uu,brain)
[11] = Drug level in PDAPP V717F transgenic mouse brain at 10 mg/kg, sc; assay type: ADME, organism-based; conditions: in vivo, read-out: Ct
[12] = Drug level in PDAPP V717F transgenic mouse plasma assessed as unbound fraction at 10 mg/kg, sc; assay type: ADME, organism-based; conditions: in vivo
[13] = Metabolic stability in human pooled liver microsomes assessed as metabolized drug level after 30 mins in presence of NADPH by LC-MS/MS analysis; assay type: ADME, Microsome; conditions: read-out: Drug metabolism
[14] = Drug level in PDAPP V717F transgenic mouse brain at 100 mg/kg, sc; assay type: ADME, organism-based; conditions: in vivo, read-out: Ct
[15] = Ratio of unbound fraction in PDAPP V717F transgenic mouse brain to plasma at 10 mg/kg, sc; assay type: ADME, organism-based; conditions: read-out: K(p,uu,brain)
[16] = Metabolic stability in mouse liver microsomes assessed as metabolized drug level after 30 mins in presence of NADPH by LC-MS/MS analysis; assay type: ADME, Microsome; conditions: read-out: Drug metabolism
[17] = Metabolic stability in rat liver microsomes assessed as metabolized drug level after 30 mins in presence of NADPH by LC-MS/MS analysis; assay type: ADME, Microsome; conditions: read-out: Drug metabolism

C[C@@H]1C[C@H]1COC(C)(C)[C@@H]1C[C@H]1[C@]12CN(c3ncccn3)C[C@H]1CSC(N)=N2
Kp uu [1]: 0.16
Papp at 1 h, 5 µM [2]: 36 ×10⁻⁶ cm/s
concentration [3]: 176 nM
concentration [4]: 133 nM
Cp(f) [5]: 41 nM
concentration [6]: 815 nM
concentration [7]: 326 nM
Cp(f) [8]: 102 nM
metabolised at 0.5 h [9]: 79%
Kp uu [10]: 0.17
concentration [11]: 63 nM
Cp(f) [12]: 17 nM
metabolised at 0.5 h [13]: 31%
concentration [14]: 389 nM
Kp uu [15]: 0.18
metabolised at 0.5 h [16]: 98%
metabolised at 0.5 h [17]: 98%

C[C@@H]1C[C@H]1CNC(=O)[C@@H]1C[C@H]1[C@]12CN(c3ncccn3)C[C@H]1CSC(N)=N2
Papp at 1 h, 5 µM [2]: 8 ×10⁻⁶ cm/s
metabolised at 0.5 h [9]: 28%
metabolised at 0.5 h [13]: 13%
metabolised at 0.5 h [16]: 33%
metabolised at 0.5 h [17]: 55%
